The subject of experiment [1] is Egr-1 protein. Nature of the experiment: Egr-1 protein expression by Western blotting in hypoxic mononuclear phagocytes. In kind it is cell-based, rat. The conditions noted are these: ligand added 6 hours before 30 minutes hypoxia; Western blot, FIG. 1b. On the procedure:
(§1) Cell culture and induction of hypoxia. A rat alveolar macrophage cell line (NR8383) was obtained from the ATCC (Manassas, Va.), and cells were grown to 70% confluence in Ham's F-12K medium containing 15% heat-inactivated fetal bovine serum. Cells were made quiescent by serum starvation (0.2%, fetal bovine serum) for 24 hours. The PPAR-γ ligands were obtained from the following sources: troglitazone was provided by Sankyo Pharmaceutical Co. (Tokyo, Japan); and 15-d-PGJ2 was purchased from Cayman Chemical Co. (Ann Arbor, Mich.). The PPAR-α ligand bezafibrate was obtained from Sigma Chemical Co. (St. Louis. Mo.). These PPAR ligands were dissolved in minute quantities of DMSO (final concentration 0.005%). PPAR ligands were added 6 hours prior to induction of hypoxia. Using an environmental chamber described previously (Yan, 1999), cells were subjected to 30 minutes hypoxia (pO2 in the medium ˜12–14 torr. This time was chosen because it has previously been shown that this is the time of maximal Egr-1 expression in hypoxic macrophages. Cells subjected to hypoxia were placed in medium pre-equilibrated with the hypoxic gas mixture just prior to placement in the environmental chamber. Thus, cultures were immersed immediately in the oxygen-deprived environment at the time of medium change, coinciding with time of placement in the chamber.
Western blotting. […]
(In western blotting, separated proteins are transferred to a membrane and probed.)

Experiment [2] deals with Egr-1 mRNA. Put plainly: Egr-1 mRNA levels by Northern blotting in hypoxic mononuclear phagocytes. The conditions noted are these: NR8383 cells, ligand added 6 hours before 30 minutes hypoxia; Northern blot, FIG. 1a. The experiment is classed as cell-based, rat. The method, then:
Cell culture and induction of hypoxia. A rat alveolar macrophage cell line (NR8383) was obtained from the ATCC (Manassas, Va.), and cells were grown to 70% confluence in Ham's F-12K medium containing 15% heat-inactivated fetal bovine serum. Cells were made quiescent by serum starvation (0.2%, fetal bovine serum) for 24 hours. The PPAR-γ ligands were obtained from the following sources: troglitazone was provided by Sankyo Pharmaceutical Co. (Tokyo, Japan); and 15-d-PGJ2 was purchased from Cayman Chemical Co. (Ann Arbor, Mich.). The PPAR-α ligand bezafibrate was obtained from Sigma Chemical Co. (St. Louis. Mo.). These PPAR ligands were dissolved in minute quantities of DMSO (final concentration 0.005%). PPAR ligands were added 6 hours prior to induction of hypoxia. […]

Experiment [3] relates to Egr-1. Nature of the experiment: Hypoxia-driven Egr-1 induction in macrophages (data not shown). In kind it is cell-based. On the procedure: as §1
For experiment [4], the system named is Egr-1/DNA binding. Put plainly: Electrophoretic mobility gel shift assay on nuclear extracts from NR8383 cells. Conditions: nuclear extracts of NR8383 cells 30 minutes after hypoxia; 1 or 20 μM 15-d-PGJ2, 20 μM troglitazone, 20 μM bezafibrate; FIG. 1c. The experiment is classed as cell-based, rat. On the procedure: as §1
Electrophoretic mobility gel shift assay. […]
For orientation: In EMSA bound probe runs differently from free probe, usually more slowly.

A short description of experiment [5]: Murine survival following lung ischemia/reperfusion injury. In kind it is in vivo, mouse. The conditions noted are these: 1 hour after circulatory exclusion of nonischemic lung. On the procedure:
Murine ischemia/reperfusion model. C57BL6/J mice (male, 12–15 weeks old) purchased from Jackson Laboratories (Bar Harbor, Me.) were used in these experiments according to a protocol approved by the Institutional Animal Care and Use Committee at Columbia University, in accordance with guidelines of the American Association for the Accreditation of Laboratory Animal Care.
Troglitazone was administered to mice by oral gavage (0.1 mL/mouse) for 7 days at doses of 0, 5, and 100 mg/kg/day, prepared as a suspension in 0.5% methylcellulose solution. For control experiments, methylcellulose solution alone was used for gavage (these experiments are referred to as “vehicle” controls). The ischemia/reperfusion stress followed on day 8. […] Survival was measured 1 hour after circulatory exclusion of the nonoperated lung (by ligating the right hilum), which was performed after both the ischemic and reperfusion (3 hours) periods had elapsed. […]
Statistics. […] Survival was estimated by the Kaplan-Meier method, with differences in survival determined by log-rank analysis. Values are expressed as mean±standard error of the mean (SEM), with differences considered statistically significant when p<0.05.

`CCCCCC=CC=C1C(=O)C=C[C@@H]1CC=CCCCC(=O)O` [15-d-PGJ2, 15-deoxy-Δ^12,14-prostaglandinJ2]: the “Egr-1 protein levels after hypoxia” value in experiment [1] is on record as “significantly inhibited”. The “Egr-1 mRNA levels after hypoxia” value in experiment [2] is “significantly reduced”. Besides, the “hypoxia-driven Egr-1 induction in macrophages” value in experiment [3] is recorded as “inhibited hypoxia-induced expression of Egr-1”. The “potency of inhibition of hypoxia-induced Egr-1 expression compared with troglitazone” value in experiment [3] (macrophages, parallel study) is recorded as “equal potency as troglitazone”. In addition, the “gel shift band associated with Egr-1/DNA binding” value in experiment [4] is on record as “virtually abrogated”.

Take `Cc1c(C)c2c(c(C)c1O)CCC(C)(COc1ccc(CC3SC(=O)NC3=O)cc1)O2` (stereo not shown) [troglitazone]: the “survival relative to vehicle-treated mice” value in experiment [5] (vehicle 10% survival) turned out to be 4 times. This compound also showed a survival in experiment [5] (1 hour ischemia, 3 hours reperfusion, FIG. 4f) of 40%.

For the origin of these results see patent US6972175B2, “Inhibition of Egr-1 expression by ppar-gamma agonists and related compositions and methods” (priority 2002, dated 2005).
